Results taken from paper PMC5827971 (Cell, 2017).

Legend:
CLYBL [1] = target: T1, CLYBL (Homo sapiens, UniProt Q8N0X4); experiment: HPLC-UV discontinuous assay, CoASH formation; type: biochemical; conditions: 20 mM glyoxylate, 2.5-200 µM acyl-CoA, 20 mM Tris pH 7.5, 5 mM MgCl2, 1 mM TCEP, 37 °C
T1 sequence (Q8N0X4 23-340): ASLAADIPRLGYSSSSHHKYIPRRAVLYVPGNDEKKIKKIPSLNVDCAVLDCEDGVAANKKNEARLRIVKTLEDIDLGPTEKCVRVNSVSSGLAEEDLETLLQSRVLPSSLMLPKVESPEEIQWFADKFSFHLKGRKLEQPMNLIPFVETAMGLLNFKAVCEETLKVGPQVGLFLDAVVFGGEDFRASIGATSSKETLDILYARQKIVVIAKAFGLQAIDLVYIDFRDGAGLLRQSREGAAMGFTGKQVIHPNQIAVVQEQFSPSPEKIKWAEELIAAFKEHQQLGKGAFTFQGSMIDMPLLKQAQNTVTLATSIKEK

CLYBL [2] = target: T1, CLYBL; experiment: HPLC-UV discontinuous assay, acetyl-CoA formation; type: biochemical; conditions: citramalyl-CoA lyase; 0.625-80 µM substrate, 20 mM Tris pH 7.5, 5 mM MgCl2, 1 mM TCEP, 37 °C

CC(=O)SCCNC(=O)CCNC(=O)[C@H](O)C(C)(C)COP(=O)(O)OP(=O)(O)OC[C@H]1O[C@@H](n2cnc3c(N)ncnc32)[C@H](O)[C@@H]1OP(=O)(O)O [acetyl-CoA]
KM (CLYBL [1]; malate synthase): KM values for acetyl-CoA or propionyl-CoA, the substrates in the forward reaction

CC(C)(COP(=O)(O)OP(=O)(O)OC[C@H]1O[C@@H](n2cnc3c(N)ncnc32)[C@H](O)[C@@H]1OP(=O)(O)O)[C@@H](O)C(=O)NCCC(=O)NCCSC(=O)C[C@](C)(O)C(=O)O [citramalyl-CoA]
KM (CLYBL [2]): The KM value for citramalyl-CoA is comparable to the KM values for acetyl-CoA or propionyl-CoA

CCC(=O)SCCNC(=O)CCNC(=O)[C@H](O)C(C)(C)COP(=O)(O)OP(=O)(O)OC[C@H]1O[C@@H](n2cnc3c(N)ncnc32)[C@H](O)[C@@H]1OP(=O)(O)O [propionyl-CoA]
KM (CLYBL [1]; methylmalate synthase): KM values for acetyl-CoA or propionyl-CoA, the substrates in the forward reaction
